Experiments:
[1] = biological target: T1, Solute carrier family 22 member 3 (Homo sapiens, UniProt O75751); assay: TP_TRANSPORTER: inhibition of MPP+ uptake (MPP+: 0.025 uM) in OCT3-expressing HEK293 cells
T1 sequence (O75751 whole entry): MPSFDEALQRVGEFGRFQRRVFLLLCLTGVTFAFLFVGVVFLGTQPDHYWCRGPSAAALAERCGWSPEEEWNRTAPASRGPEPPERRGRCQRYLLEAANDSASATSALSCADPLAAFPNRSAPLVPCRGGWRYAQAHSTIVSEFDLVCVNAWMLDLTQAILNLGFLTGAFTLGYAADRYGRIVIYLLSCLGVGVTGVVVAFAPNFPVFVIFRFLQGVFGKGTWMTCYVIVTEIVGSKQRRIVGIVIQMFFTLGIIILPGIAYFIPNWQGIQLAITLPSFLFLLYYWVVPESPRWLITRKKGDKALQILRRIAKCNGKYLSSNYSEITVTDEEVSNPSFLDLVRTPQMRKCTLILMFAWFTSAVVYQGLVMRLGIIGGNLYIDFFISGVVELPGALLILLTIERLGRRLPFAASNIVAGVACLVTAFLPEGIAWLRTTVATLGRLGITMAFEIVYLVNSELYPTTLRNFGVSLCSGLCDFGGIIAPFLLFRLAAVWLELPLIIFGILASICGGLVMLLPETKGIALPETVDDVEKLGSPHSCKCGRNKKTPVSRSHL

[2] = biological target: T2, Solute carrier family 22 member 1 (Homo sapiens, UniProt O15245); assay: TP_TRANSPORTER: inhibition of MPP+ uptake (MPP+: 0.025 uM) in OCT1-expressing HEK293 cells
T2 sequence (O15245 whole entry): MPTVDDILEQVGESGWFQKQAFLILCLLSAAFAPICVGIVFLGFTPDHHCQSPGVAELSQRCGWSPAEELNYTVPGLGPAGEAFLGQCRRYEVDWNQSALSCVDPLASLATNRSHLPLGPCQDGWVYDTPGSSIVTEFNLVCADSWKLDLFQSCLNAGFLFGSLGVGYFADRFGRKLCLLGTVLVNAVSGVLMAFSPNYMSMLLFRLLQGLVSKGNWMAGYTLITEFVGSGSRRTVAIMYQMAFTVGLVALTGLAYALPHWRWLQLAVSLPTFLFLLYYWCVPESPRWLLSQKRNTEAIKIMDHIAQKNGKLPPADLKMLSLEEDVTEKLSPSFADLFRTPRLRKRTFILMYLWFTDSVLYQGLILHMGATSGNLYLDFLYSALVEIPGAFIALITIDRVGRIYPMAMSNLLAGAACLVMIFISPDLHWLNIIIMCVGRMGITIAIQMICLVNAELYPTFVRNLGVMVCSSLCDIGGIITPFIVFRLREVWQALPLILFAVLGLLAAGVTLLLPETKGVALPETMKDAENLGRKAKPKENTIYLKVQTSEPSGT

[3] = biological target: T3, Solute carrier family 22 member 2 (Homo sapiens, UniProt O15244); assay: TP_TRANSPORTER: inhibition of MPP+ uptake (MPP+: 0.025 uM) in OCT2-expressing HEK293 cells
T3 sequence (O15244 whole entry): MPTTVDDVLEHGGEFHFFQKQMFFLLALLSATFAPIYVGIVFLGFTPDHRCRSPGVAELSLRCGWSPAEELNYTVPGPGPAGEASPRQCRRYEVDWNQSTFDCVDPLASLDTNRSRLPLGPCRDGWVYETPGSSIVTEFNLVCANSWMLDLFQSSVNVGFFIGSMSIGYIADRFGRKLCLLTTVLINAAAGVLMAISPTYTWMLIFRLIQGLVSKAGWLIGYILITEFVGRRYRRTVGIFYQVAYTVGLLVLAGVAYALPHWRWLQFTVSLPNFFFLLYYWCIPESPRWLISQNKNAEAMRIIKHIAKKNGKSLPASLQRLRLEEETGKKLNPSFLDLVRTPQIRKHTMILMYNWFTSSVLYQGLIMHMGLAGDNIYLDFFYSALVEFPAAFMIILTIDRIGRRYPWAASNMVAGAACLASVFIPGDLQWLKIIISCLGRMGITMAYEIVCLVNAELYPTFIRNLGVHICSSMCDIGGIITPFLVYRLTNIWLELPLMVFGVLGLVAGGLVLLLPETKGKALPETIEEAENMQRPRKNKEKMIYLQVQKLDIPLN

Structure (SMILES)	IC50 [1] [nM]	IC50 [2] [nM]	IC50 [3] [nM]
CCN1/C(=C/c2ccc3ccccc3[n+]2CC)C=Cc2ccccc21	90	980	1130
C[C@]12C[C@H](O)[C@H]3[C@@H](CCC4=CC(=O)CC[C@@]43C)[C@@H]1CC[C@@H]2C(=O)CO [CORTICOSTERONE]	290	21700	34200
CC(COc1ccccc1)N(CCCl)Cc1ccccc1 (stereo not given) [PHENOXYBENZAMINE]	6130	2720	
CC(=O)[C@H]1CC[C@H]2[C@@H]3CCC4=CC(=O)CC[C@]4(C)[C@H]3CC[C@]12C [PROGESTERONE]	4280	3050	
C[C@]12CC[C@@H]3c4ccc(O)cc4CC[C@H]3[C@@H]1CC[C@@H]2O [ESTRADIOL]	2880	5730	
CN(CCCl)C1c2ccccc2-c2ccccc21	50	> 300	100
COc1cc(C(O)CNC(C)C)ccc1O (stereo not given) [METIPRENALINE]	4380	> 100000	> 100000
COc1cc2nc(N3CCN(C(=O)c4ccco4)CC3)nc(N)c2cc1OC [PRAZOSIN]	12600	1840	

From ChEMBL document CHEMBL2074233, “Expression and pharmacological profile of the human organic cation transporters hOCT1, hOCT2 and hOCT3” (Br J Pharmacol, 2002)
